Data reported in article PMC11478322, “1,2,4-Oxadiazole Derivatives: Physicochemical Properties, Antileishmanial Potential, Docking and Molecular Dynamic Simulations of Leishmania infantum Target Proteins” (Molecules, 2024).
Where two headings read alike, the source gives them in different places.

Columns and labels:
[1] = tested on: L. infantum amastigotes in PeMs; assay: microbe, parasite or virus in culture; conditions: for number of intracellular amastigotes / parasites in infected PeMs: glucantime 346.19 µM, Amphotericin B 10.55 µM
Method: After initial cultivation, non-adherent cells were removed by washing with fresh RPMI medium. Subsequently, PeMs were infected with stationary promastigote forms of L. infantum at 1:20 PeM/promastigotes ratio. […] After incubation time, the samples were washed in PBS, fixed with methanol, and stained with Giemsa. The percentage of infected macrophages was determined by counting 150 randomly chosen cells in duplicate, and the survival index (SuI) was calculated by multiplying the percentage of infected cells by the mean of amastigotes in infected cells. […] The tests were carried out in duplicate in three independent experiments.

[2] = tested on: L. infantum amastigotes in PeMs; parameters: method as in PMID 18660990, PMID 23070424; conditions: concentration used as positive control; read-out: IC50 of reference drugs; cited from earlier work
[3] = Cytotoxicity assay (MTT) in fibroblasts; assay type: cell-based; conditions: mouse, 48 h of treatment, MTT, tested 6.25–200 µM
Method: (§1) The cytotoxic potential of Ox1–Ox7 was first evaluated in fibroblasts (L929) and macrophages (J774.G8). For this, 5 × 10^5 cells/mL were seeded in 96-well microplates containing 100 μL of DMEM or RPMI-1640 medium supplemented with 10% fetal bovine serum (FBS) and cultivated for 24 h at 37 °C, under 5% CO2 atmosphere. […] Untreated cells were considered as negative control. The cell viability was measured by spectrometry after 48 h of cultivation using MTT (Sigma-Aldrich, St. Louis, MO, USA) methodology described by Mosmann. The optical densities (OD) of the samples were read in a Glomax Multiplate reader (Promega, Madison, WI, USA) at 540 nm. Each assay was performed in triplicate in three independent experiments. […] The selectivity index (SI) for each compound was calculated as the ratio between the CC50 values obtained for J774.G8 macrophages and fibroblast and the IC50 values for promastigotes. The compound with a higher value of SI was selected for cytotoxicity evaluation in macrophages obtained from BALB/c mice peritoneal exudate (PeM), following the methodology described above.

fibroblasts (L929) = assay: Cytotoxicity assay (MTT) in fibroblasts; assay type: cell-based; conditions: 200 µM, 48 h
Method: as §1

[4] = Cytotoxicity assay (MTT) in macrophages; assay type: cell-based; conditions: mouse, 48 h of treatment, MTT, tested 6.25–200 µM
Method: as §1

macrophages (J774.G8) = assay: Cytotoxicity assay (MTT) in macrophages; assay type: cell-based; conditions: 200 µM, 48 h
Method: as §1

[5] = tested on: L. infantum promastigotes; assay: Promastigote viability (CellTiter-Glo ATP); assay type: cell-based, L. infantum (BH46 strain); conditions: for IC50: Leishmania infantum, read-out: IC50 Pro; for SI Pro/J774.G8: ratio CC50 (J774.G8)/IC50 (promastigotes); for SI Pro/L929: ratio CC50 (L929)/IC50 (promastigotes); for SI (promastigotes vs fibroblasts and J774.G8 macrophages): stated as bound
Method: Promastigote forms of L. infantum (BH46 strain) were cultivated at 27 °C in Schneider’s medium, supplemented with 10% (v/v) heat-inactivated fetal bovine serum (FBS, Gibco, Waltham, MA, USA), 100 U/mL penicillin, and 0.01 mg/mL streptomycin. Parasites in the log phase were used in the test of drugs against promastigotes, whereas those obtained in the stationary phase were used to infect peritoneal macrophages. […] The viability of promastigotes was assessed through ATP production using the CellTiter-Glo® Luminescent Cell Viability assay (Promega, Madison, WI, USA), in accordance with the manufacturer’s instructions.

[6] = Cytotoxicity assay (MTT) in peritoneal macrophages; assay type: cell-based, BALB/c mice; conditions: BALB/c, mouse, peritoneal macrophages (PeM); peritoneal macrophages, estimated; read-out: CC50 for PeMs
Method: as §1

[7] = tested on: peritoneal macrophages from BALB/c mice (PeM); assay: Cytotoxicity assay (MTT) in peritoneal macrophages; assay type: cell-based
Method: as §1

[8] = tested on: L. infantum promastigotes; assay: Scanning electron microscopy of promastigotes (rounded cells count); assay type: cell-based; conditions: 48 h, control 5%
Method: To identify alterations in the morphology of promastigotes and amastigotes, scanning (SEM) and transmission (TEM) electron microscopy assays were performed. For SEM, L. infantum promastigotes were treated with once or twice the IC50 concentration of Ox1 for 48 h. Subsequently, the parasites were harvested by centrifugation, washed with 100 mM PBS, pH 7.2, fixed at room temperature, for 1 h in 2.5% glutaraldehyde solution diluted in 0.1 M cacodylate buffer, pH 7.2. Cells were adhered to coverslips pre-coated with poly-L-lysine, post-fixed for 1 h with a solution containing 1% osmium tetroxide, 0.8% potassium ferricyanide, and 5 mM calcium chloride diluted in 0.1 M cacodylate buffer, pH 7.2, in light-protected environment. Then, the cells were dehydrated in graded ethanol series (15–100%) for 10 min at room temperature. Samples were critical-point dried in a LEICA EM CPD300 apparatus (Leica Microsystems, Wetzlar, Hessen, DE, Germany) and then coated with 20 nm gold and observed in a JEOL T-200 scanning electron microscope (JEOL Ltd., Tokyo, Japan). For MET, promastigotes and infected PeMs were treated or not with once or twice IC50 concentration of Ox1, fixed and post-fixed, as described above. For infected–adhered peritoneal macrophages, after the post-fixation, the cells were scraped off the culture dishes with a rubber policeman. […]

[9] = tested on: L. infantum promastigotes; assay: Mitochondrial membrane potential, Rhodamine 123 flow cytometry; assay type: cell-based
Method: Afterward, the cells were centrifuged and stained with Rhodamine 123 (10 µg/mL, molecular probes, Invitrogen™, Waltham, MA, USA) in PBS for 15 min at 27 °C, in the dark. […] The changes in the fluorescence intensity for fluorochrome were determined by the variation index calculated as follows: (MT − MC)/MC where MT is the mean fluorescence intensity of treated cells and MC is the mean of fluorescence of control cells without treatment. A total of 20,000 events were acquired, and the data were analyzed with FLOWJO software version 10.2.

[10] = 24 h, Ox1 8.24, 16.49, 32.98 µM
[11] = promastigotes, 48 h of treatment

Compound | number of intracellular amastigotes / parasites in infected PeMs [1, 10] | CC50 at 48 h ([3]; L929 fibroblasts) | CC50 at 48 h ([4]; J774.G8 macrophages) | IC50 [5, 11] | SI Pro/J774.G8 [5] | SI Pro/L929 [5] | melting point | SI (promastigotes vs fibroblasts and J774.G8 macrophages) [5] | other results
C[C@@H]1[C@H](O)[C@@H](C)/C=C/C=C/C=C/C=C/C=C/C=C/C=C/[C@H](O[C@@H]2O[C@H](C)[C@@H](O)[C@H](N)[C@@H]2O)C[C@@H]2O[C@](O)(C[C@@H](O)C[C@@H](O)[C@H](O)CC[C@@H](O)C[C@@H](O)CC(=O)O[C@H]1C)C[C@H](O)[C@H]2C(=O)O [Amphotericin B, reference compound] | reduced the number of intracellular amastigotes |  |  |  |  |  |  |  | IC50 [2]: 10.6 µM
COc1ccc(-c2noc(NC3CCCCC3)n2)cc1 [Ox1, N-Cyclohexyl-3-(4-methoxyphenyl)-1,2,4-oxadiazol-5-amine] | significantly decreased | > 200 µM | > 200 µM | 32.9 ± 2.2 µM | 8.9 | 9.7 | 109 to 110 °C |  | reduction of cell viability, fibroblasts (fibroblasts (L929)): 20%; reduction of cell viability, macrophages J774.G8 (macrophages (J774.G8)): 26%; reduction in promastigote viability ([5]; 25 µM, 48 h): 32%; reduction of growth of parasites ([5]; 50 µM, 24 h): 66%; promastigote viability inhibition ([5]; 200 µM, regardless of the cultivation time (24 and 48 h)): exceeded 90%; SI against promastigotes compared to peritoneal macrophages ([5]; CC50 PeM/IC50 promastigotes): 18.7; increase in activity compared to compound Ox3 ([5]; promastigote IC50 comparison): about 10 times; CC50 at 48 h [6]: 617 µM; reduction of viability of PeMs ([7]; 400 µM, compared to control cells): 13%; viability of macrophages (PeM) ([7]; 6.25 to 200 µM): significantly increased; survival index (SuI) of amastigotes inside the macrophages [1, 10]: significantly decreased; SI against amastigotes ([1]; CC50 for PeM/IC50 of amastigote forms): 61.7; IC50 ([1]; Leishmania infantum, Peritoneal macrophage, 24 h, read-out: IC50 for amastigote forms in PeMs): 10 µM; percentage of rounding cells ([8]; IC50 (32.98 µM)): 7%; percentage of rounding cells ([8]; twice the IC50 (65.96 µM)): 30%; variation index of membrane potential (Rhodamine 123) ([9]; 2× IC50 of Ox1, 48 h): −0.32; variation index of membrane potential (Rhodamine 123) ([9]; IC50 of Ox1, 48 h): +0.28; membrane potential (Rhodamine 123 fluorescence) vs control ([9]; ½ IC50 of Ox1, 48 h): No difference
O=[N+]([O-])c1cccc(-c2noc(NC3CCCCC3)n2)c1 [Ox2, N-Cyclohexyl-3-(3-nitrophenyl)-1,2,4-oxadiazol-5-amine] |  | > 200 µM | > 200 µM | 220 ± 3.6 µM |  | 1.7 | 131 to 133 °C | lower than 5.0 | 
O=[N+]([O-])c1ccc(-c2noc(NC3CCCCC3)n2)cc1 [Ox3, N-Cyclohexyl-3-(4-nitrophenyl)-1,2,4-oxadiazol-5-amine] |  | > 200 µM | > 200 µM | 336 ± 12.1 µM |  | 1.1 | 201 to 203 °C |  | 
Cc1ccc(-c2noc(NC3CCCCC3)n2)cc1 [Ox4, N-Cyclohexyl-3-(4-methylphenyl)-1,2,4-oxadiazol-5-amine] |  |  |  |  |  | 1.7 |  |  | CC50 at 48 h ([3]; read-out: CC50 L929): > 200 µM; CC50 at 48 h ([4]; read-out: CC50 J774.G8): > 200 µM; IC50 ([5]; 48 h): 174 ± 12.3 µM
C#CCN(c1nc(-c2ccccc2)no1)C1CCCCC1 [Ox5, N-Cyclohexyl-3-phenyl-N-(prop-2-yn-1-yl)-1,2,4-oxadiazol-5-amine] |  | > 200 µM | 160 ± 6.5 µM | 84.7 ± 3.6 µM |  | 4.4 | 112 to 114 °C | lower than 5.0 | 
C#CCN(c1nc(-c2ccc([N+](=O)[O-])cc2)no1)C1CCCCC1 [Ox6, N-Cyclohexyl-3-(4-nitrophenyl)-N-(prop-2-yn-1-yl)-1,2,4-oxadiazol-5-amine] |  | > 200 µM | > 200 µM | 92.2 ± 1.9 µM | 2.5 | 3.7 | 108 to 110 °C | lower than 5.0 | 
C#CCN(c1nc(-c2cccc([N+](=O)[O-])c2)no1)C1CCCCC1 [Ox7, N-Cyclohexyl-3-(3-nitrophenyl)-N-(prop-2-yn-1-yl)-1,2,4-oxadiazol-5-amine] |  | > 200 µM | 197 ± 6 µM | 98.2 ± 1.4 µM | 2.0 |  | 94 to 96 °C |  | 
c1ccc(-c2noc(NC3CCCCC3)n2)cc1 [Ox, N-Cyclohexyl-3-(phenyl)-1,2,4-oxadiazol-5-amine] |  |  |  |  |  |  | 125 to 127 °C |  | 
antimoniate of meglumine [glucantime, reference compound] | reduced the number of intracellular amastigotes |  |  |  |  |  |  |  | IC50 [2]: 346 µM
